Results from patent publication US4649160A, “Substituted phenoxy-aminopropanols” (Hoffmann-La Roche Inc., priority 1980, dated 1987).
Structures can show the parent of a compound that is named as a salt. Where two headings read alike, the source gives them in different places.

Columns and labels:
[1] = target: T1, β1-adrenoceptors (Rattus norvegicus, UniProt P18090); assay: 50% reduction in isoprenaline-induced tachycardia in rats (β-blocking activity, heart rate); format: in vivo; settings: iv, read-out: ED50 (HR)
T1 construct: measured in rats by determining the dosage in μg/kg i.v. of substance being tested; from tissue; host or cells: living rat (in vivo, i.v. dosing); heart rate response to isoprenaline

[2] = target: T2, β2-adrenoceptors (Rattus norvegicus, UniProt P10608); assay: 50% reduction in isoprenaline-induced depressor responses in rats (β-blocking activity, blood pressure); format: in vivo; settings: iv, read-out: ED50 (BP)
T2 construct: measured in rats by determining the dosage in μg/kg i.v. of substance being tested; from tissue; host or cells: living rat (in vivo, i.v. dosing); vascular depressor response to isoprenaline

[3] = rats, i.v., dosage for 50% reduction in isoprenaline-induced tachycardia
[4] = rats, i.v., dosage for 50% reduction in isoprenaline-induced depressor responses

T2 sequence (P10608 whole entry): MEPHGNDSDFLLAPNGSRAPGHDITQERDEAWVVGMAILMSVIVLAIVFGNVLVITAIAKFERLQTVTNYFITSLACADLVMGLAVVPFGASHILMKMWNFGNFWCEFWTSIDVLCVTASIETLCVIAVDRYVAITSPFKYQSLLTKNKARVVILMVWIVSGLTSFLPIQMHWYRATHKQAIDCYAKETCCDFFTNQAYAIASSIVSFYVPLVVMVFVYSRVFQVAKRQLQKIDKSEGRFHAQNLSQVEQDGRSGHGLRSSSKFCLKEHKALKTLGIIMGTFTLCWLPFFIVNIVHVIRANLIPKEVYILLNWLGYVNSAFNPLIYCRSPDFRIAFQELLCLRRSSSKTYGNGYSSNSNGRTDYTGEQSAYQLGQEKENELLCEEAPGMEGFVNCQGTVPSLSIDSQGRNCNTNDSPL
T1 sequence (P18090 whole entry): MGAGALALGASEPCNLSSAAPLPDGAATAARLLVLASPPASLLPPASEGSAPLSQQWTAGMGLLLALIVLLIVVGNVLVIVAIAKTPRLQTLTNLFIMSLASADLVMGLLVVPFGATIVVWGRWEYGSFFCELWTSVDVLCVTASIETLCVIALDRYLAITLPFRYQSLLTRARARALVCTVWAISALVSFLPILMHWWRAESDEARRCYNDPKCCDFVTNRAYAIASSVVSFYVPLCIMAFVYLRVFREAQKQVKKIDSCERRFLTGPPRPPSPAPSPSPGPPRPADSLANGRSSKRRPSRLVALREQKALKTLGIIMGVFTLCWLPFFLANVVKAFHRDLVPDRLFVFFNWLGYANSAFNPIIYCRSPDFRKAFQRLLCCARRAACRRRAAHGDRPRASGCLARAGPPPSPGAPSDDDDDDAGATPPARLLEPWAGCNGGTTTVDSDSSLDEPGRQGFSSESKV

SMILES	ED50 [1, 3]	ED50 [2, 4]	ED50 [1]	ED50 [2]
CC(C)NCC(O)COc1ccc(OCCOCCc2ccccc2)cc1Cl (centres unmarked) [1-[2-chloro-4-[2-(phenethyloxy)ethoxy]phenoxy]-3-isopropylamino-2-propanolhydrochloride]	0.025 mg/kg	0.834 mg/kg		
CC(C)NCC(O)COc1ccc(OCCOCCc2ccc(F)cc2)cc1 (centres unmarked) [1-[4-[2-(4-fluorophenethyloxy)-ethoxy]phenoxy]-3-isopropylamino-2-propanolhydrochloride]	0.003 mg/kg	> 2 mg/kg		
CC(C)NCC(O)COc1ccc(OCCOCCc2ccccc2)cc1.Cl (centres unmarked) [1-isopropylamino-3-[4-(2-phenethyloxyethoxy)phenoxy]-2-propanol hydrochloride]			0.015 mg/kg	> 2 mg/kg
CC(C)(C)NCC(O)COc1ccc(OCCOCCc2ccccc2)cc1.Cl (centres unmarked) [1-tert.butylamino-3-[4-(2-phenethyloxyethoxy)phenoxy]-2-propanol hydrochloride]			0.018 mg/kg	0.979 mg/kg
